Activity calls are given as the source filed them.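 Rule for the calls: active = compounds whose fitted half-maximal concentration for changing the GFP signal is at or below a set limit; inactive = the rest.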

The nature of this assay: TOR pathway RPL19A-GFP modulators, concentration series – cell-based, S. cerevisiae, flow cytometry, MLPCN hits, dose response (AID 2740).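 Note: background is signal of the same compound in parental non-GFP s288c yeast.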 The following applies: S. cerevisiae RPL19A-GFP strain, flow cytometry fluorescence, 3 h; at 33 µM (top of the series).
Regarding `Cc1cc(S(=O)(=O)ON2C(=O)c3ccccc3C2=O)ccc1F`, the GFP fluorescence, lower = active (kMESF (background-subtracted)) is 43.3 (inactive).

Consider `COc1cc(/C=C2\C(=O)ON=C2c2ccccc2)cc(OC)c1OC`, for which the GFP fluorescence, lower = active (kMESF (background-subtracted)) is 33.4 (inactive). For the compound `COc1ccc(/C=C2\C(=O)ON=C2c2ccccc2)cc1`, the GFP fluorescence, lower = active (kMESF (background-subtracted)) was 24.9 (inactive). On to `C=CCN1C(=O)/C(=C/c2cccs2)C(=O)NC1=S`, for which the GFP fluorescence, lower = active (kMESF (background-subtracted)) is 15.8 (inactive). The value for `CC(=O)Oc1oc(-c2ccccc2)nc1C=Nc1ccc(N(C)C)cc1` was 41.6 (inactive). As for `Oc1ccc(Br)cc1/C=N/Nc1ccccn1`, the GFP fluorescence, lower = active (kMESF (background-subtracted)) was 40.5 (inactive). The value for `COc1cc(NC(=O)c2ccc(C)cc2)ccc1NC(=O)c1cc2ccccc2o1` was 40.8 (inactive); that for `O=C(C#Cc1cccc([N+](=O)[O-])c1)c1ccccc1` was 41.3 (inactive). For `Cc1cccc(C(=O)NC(=S)NNC(=O)Cc2ccccc2)c1`, the GFP fluorescence, lower = active (kMESF (background-subtracted)) is 52.4 (inactive). Consider `Cc1cccc(N=C2NC(=O)/C(=C/C=C/c3ccco3)S2)c1C`, for which the GFP fluorescence, lower = active (kMESF (background-subtracted)) is 34.7 (inactive). Take `O=C(CCS(=O)(=O)c1ccccc1)Nc1nc(-c2ccccn2)cs1`: the GFP fluorescence, lower = active (kMESF (background-subtracted)) is 37.8 (inactive).

Take `Cc1cc(Br)c2c(c1)/C(=C/C(=O)c1cccs1)C(=O)N2`: the GFP fluorescence, lower = active (kMESF (background-subtracted)) was 40.3 (inactive).

On to `O=C(/C=C/c1ccc(Br)cc1)NC(=S)NNC(=O)c1ccco1`, for which the GFP fluorescence, lower = active (kMESF (background-subtracted)) is 50.2 (inactive). As to `O=c1oc(/C=C/c2ccc([N+](=O)[O-])s2)nc2ccccc12`, the GFP fluorescence, lower = active (kMESF (background-subtracted)) was 55 (inactive). As for `Oc1ccc(CNc2ccccc2)c2cccnc12`, the GFP fluorescence, lower = active (kMESF (background-subtracted)) was 42.2 (inactive). To `CCN(CC)c1ccc(/C=C2/C(=O)c3ccc(C(=O)O)cc3C2=O)cc1` belongs 38.3 (inactive). To `Cc1cccc(OCCN2CSC(=S)N(C)C2)c1` belongs 40.5 (inactive); to `CCCc1cc(NCc2ccccn2)n2nc(C)c(-c3ccccc3)c2n1`, 39.1 (inactive); to `COc1ccc(C2=CC(=O)N(Nc3ccccc3)C2=O)cc1`, 34.6 (inactive). In the case of `COc1ccc(/C=C2/C(=O)ON=C2c2ccccc2)cc1OC`, the GFP fluorescence, lower = active (kMESF (background-subtracted)) was 39.5 (inactive).

Turning to `O=C(Nc1cccc(-c2csc(Nc3ccccc3)n2)c1)c1ccccc1`, the GFP fluorescence, lower = active (kMESF (background-subtracted)) was 33.7 (inactive).

Take `O=C(Cc1ccc(Cl)cc1)NNC(=S)NC(=O)c1cccs1`: the GFP fluorescence, lower = active (kMESF (background-subtracted)) is 45.9 (inactive).

With `O=C(/C=C/c1ccc(F)cc1)NC(=S)NNC(=O)c1cnccn1`, the GFP fluorescence, lower = active (kMESF (background-subtracted)) was 36.8 (inactive).

`Cc1ccc(S(=O)(=O)N2CC(C(=O)O)=CC[C@H]2c2ccc(Cl)cc2)cc1`: the GFP fluorescence, lower = active (kMESF (background-subtracted)) is 37.3 (inactive).

Turning to `O=C(Nc1nc2ccc(F)cc2s1)c1ccccn1`, the GFP fluorescence, lower = active (kMESF (background-subtracted)) is 48.2 (inactive).

In the case of `CC(C)(C)c1cc(C(c2cccnc2)N2CCN(CCO)CC2)cc(C(C)(C)C)c1O` (stereo unspecified), the GFP fluorescence, lower = active (kMESF (background-subtracted)) is 4.63 (inactive). For the compound `CN(C)c1ccc(N=Cc2nc(-c3ccccc3)oc2OC(=O)c2cccc(Cl)c2)cc1`, the GFP fluorescence, lower = active (kMESF (background-subtracted)) was 44.1 (inactive). `CCCCCCCCCCCCCCCC[n+]1cccc2ccccc21`: the GFP fluorescence, lower = active (kMESF (background-subtracted)) is 1.36 (inactive). Turning to `CC(c1ccccc1)N1C(=O)/C(=C/c2ccncc2)SC1=S` (stereo unspecified), the GFP fluorescence, lower = active (kMESF (background-subtracted)) was 20.6 (inactive).

`Oc1ccc2ccccc2c1N=Nc1nccs1`: the GFP fluorescence, lower = active (kMESF (background-subtracted)) is 51 (inactive). For the compound `O=C(NNC(=S)NC(=O)c1ccco1)c1ccc(F)cc1`, the GFP fluorescence, lower = active (kMESF (background-subtracted)) was 49.8 (inactive).

As for `Cc1ccccc1N1C(=O)C(Cl)=C(N2CCN(c3ccccc3)CC2)C1=O`, the GFP fluorescence, lower = active (kMESF (background-subtracted)) is 39.3 (inactive). Take `O/C=c1\ccc2cccc3nc(C(F)(F)F)nc1c23`: the GFP fluorescence, lower = active (kMESF (background-subtracted)) is 53.9 (inactive).

As to `CCC1(c2ccccc2)ON(c2c(Br)cccc2Br)C1=O` (stereo unspecified), the GFP fluorescence, lower = active (kMESF (background-subtracted)) is 34.8 (inactive). `COc1ccc(C2(C)ON(c3ccccc3C(F)(F)F)C2=O)cc1` (stereo unspecified): the GFP fluorescence, lower = active (kMESF (background-subtracted)) was 34.3 (inactive). `CC(C)(C)C1C/C(=C/c2ccccn2)C(=O)/C(=C/c2ccccn2)C1` (stereo unspecified): the GFP fluorescence, lower = active (kMESF (background-subtracted)) was 41.4 (inactive). To `O=[N+]([O-])c1cnc(Sc2ccncn2)s1` belongs 31.1 (inactive); to `Cc1ccnc(N2C(=O)c3cccc4c([N+](=O)[O-])ccc(c34)C2=O)c1`, 56.1 (inactive); to `CCOC(=O)CS(=O)(=O)c1nc(-c2ccc(F)cc2)cc(C(F)(F)F)n1`, 46.7 (inactive). The value for `Cc1ccc(NC(=O)CCc2ccccc2)cc1S(=O)(=O)N1CCOCC1` was 45.9 (inactive); that for `Cc1cc(C)c(S(=O)(=O)ON2C(=O)c3ccccc3C2=O)cc1C` was 25.8 (inactive); that for `O=[N+]([O-])c1cc(O)c2ncccc2c1` was 45 (inactive). Take `CCc1cccc2sc(N3CCN(C(=O)c4ccc([N+](=O)[O-])o4)CC3)nc12`: the GFP fluorescence, lower = active (kMESF (background-subtracted)) is 11.8 (inactive). To `CSC1=NS(=O)(=O)c2c(C)nn(C)c2S1` belongs 35.2 (inactive); to `O=C1N(c2ccccc2C(F)(F)F)O[C@]1(c1ccccc1)C1CCCC1`, 36.6 (inactive). As for `COc1cc(/C=C2\C(=O)ON=C2c2ccc(Cl)cc2)ccc1O`, the GFP fluorescence, lower = active (kMESF (background-subtracted)) was 40.8 (inactive). In the case of `COc1ccc(C(=O)NC(=S)NNC(=O)c2cnccn2)cc1OC`, the GFP fluorescence, lower = active (kMESF (background-subtracted)) was 38.6 (inactive). Turning to `CCCCC1OC23CCCCC2C(C#N)(C(=N)O3)C1(C#N)C#N` (stereo unspecified), the GFP fluorescence, lower = active (kMESF (background-subtracted)) was 43.5 (inactive). As to `Cc1sc(/C=C2\C(=O)ON=C2c2ccccc2)cc1Br`, the GFP fluorescence, lower = active (kMESF (background-subtracted)) was 45 (inactive). For `Cc1cccc(Nc2nc(-c3ccccn3)cs2)n1`, the GFP fluorescence, lower = active (kMESF (background-subtracted)) is 29.8 (inactive).

Regarding `Cc1ccc(S(=O)(=O)Cc2cc(F)c([N+](=O)[O-])cc2[N+](=O)[O-])cc1`, the GFP fluorescence, lower = active (kMESF (background-subtracted)) was 7.75 (inactive).

Regarding `CN1CCN(C(c2ccc(C(F)(F)F)cc2)c2ccc3cccnc3c2O)CC1` (stereo unspecified), the GFP fluorescence, lower = active (kMESF (background-subtracted)) was 29.6 (inactive).

In the case of `CCC(=O)Oc1oc(-c2ccccc2)nc1C=Nc1ccc(C)cc1`, the GFP fluorescence, lower = active (kMESF (background-subtracted)) was 40.5 (inactive). `COc1ccc(N2C(=O)CC(Sc3ncn[nH]3)C2=O)c(OC)c1` (stereo unspecified): the GFP fluorescence, lower = active (kMESF (background-subtracted)) is 42.2 (inactive). In the case of `CC(=O)Oc1ccc(N2C(=O)C3C4C=CC(CO)(O4)C3C2=O)cc1` (stereo unspecified), the GFP fluorescence, lower = active (kMESF (background-subtracted)) is 38.8 (inactive).

Take `N#C/C(=C\c1ccccn1)c1nc2ccccc2s1`: the GFP fluorescence, lower = active (kMESF (background-subtracted)) is 54.2 (inactive). Turning to `O=c1c2cc(Cl)ccc2nc(-c2ccc([N+](=O)[O-])cc2)n1O`, the GFP fluorescence, lower = active (kMESF (background-subtracted)) is 14 (inactive).

With `CCC(C)/C(C)=N/NC(=O)c1ccc(COc2ccc(Cl)c(C)c2)cc1` (stereo unspecified), the GFP fluorescence, lower = active (kMESF (background-subtracted)) was 44.9 (inactive).

For the compound `Oc1c(Br)cc(Br)cc1C=Nc1ccc2[nH]ncc2c1`, the GFP fluorescence, lower = active (kMESF (background-subtracted)) was 36 (inactive). As to `Cc1ccc(-c2nc(C)sc2CC(=O)Nc2nnc(C)s2)cc1`, the GFP fluorescence, lower = active (kMESF (background-subtracted)) was 37.9 (inactive). Consider `Cc1nn2c(NCc3ccccn3)c3c(nc2c1-c1ccccc1)CCC3`, for which the GFP fluorescence, lower = active (kMESF (background-subtracted)) is 44.3 (inactive).

`CC(=O)Oc1ccc(N2C(=O)C3C4C=CC(O4)C3C2=O)cc1` (stereo unspecified): the GFP fluorescence, lower = active (kMESF (background-subtracted)) is 48.8 (inactive). Regarding `O=c1c2sc(-c3ccccc3)cc2nc2n1CCC2`, the GFP fluorescence, lower = active (kMESF (background-subtracted)) was 20.5 (inactive). In the case of `Cc1cc(C)c(OCC(=O)Nc2nc(-c3ccccn3)cs2)c(C)c1`, the GFP fluorescence, lower = active (kMESF (background-subtracted)) was 39.3 (inactive). `O=[N+]([O-])c1c(Nc2ccccn2)cc(Cl)c2nonc12`: the GFP fluorescence, lower = active (kMESF (background-subtracted)) is 68.3 (inactive). Take `O=C(Nc1ccccc1)ON=C1CCCC1`: the GFP fluorescence, lower = active (kMESF (background-subtracted)) is 42.1 (inactive). As for `COc1cc(C=C2C(=O)c3ccccc3C2=O)cc(OC)c1`, the GFP fluorescence, lower = active (kMESF (background-subtracted)) is 41.6 (inactive). In the case of `COc1ccc(C(=O)NNC(=S)NC(=O)/C=C/c2cccs2)cc1`, the GFP fluorescence, lower = active (kMESF (background-subtracted)) was 47.4 (inactive). To `COc1ccccc1-c1nc2s/c(=C\c3cccs3)c(=O)n2n1` belongs 36.9 (inactive); to `Clc1cnc(N/N=C/c2cccs2)c(Cl)c1`, 43.5 (inactive); to `O=C(Nc1cccc(C(F)(F)F)c1)Oc1ccc(Cl)c2cccnc12`, 39.4 (inactive). For the compound `CCCCC(=O)NNC(=S)NC(=O)c1ccc(C)cc1`, the GFP fluorescence, lower = active (kMESF (background-subtracted)) is 42.3 (inactive). Turning to `Cc1ccc(C(=O)O/N=C(\N)Cc2cccs2)c(Cl)c1`, the GFP fluorescence, lower = active (kMESF (background-subtracted)) is 38.5 (inactive). To `N/C(Cc1ccc(Cl)cc1)=N\OC(=O)c1cccc2ccccc12` belongs 45.3 (inactive); to `O=c1/c(=C/c2cccc3ccccc23)sc2ncnn12`, 50.3 (inactive); to `CN(C)c1ccc(N=Cc2nc(-c3ccccc3)oc2OC(=O)c2ccccc2)cc1`, 44.1 (inactive).

These data come from PubChem BioAssay AID2740 (NMMLSC, 2010).
